From patent US9321790B2, “Pyrimidinone derivatives as antimalarial agents” (SANOFI, priority 2012, dated 2016)
Like-named read-outs stand apart in the source and are kept apart here.

Experiments:
human PI3Kα = human PI3Kα (Homo sapiens (Human), UniProt P42336); assay: Human PI3Kα activity test (luciferin/luciferase ATP consumption, KinaseGlo); format: biochemical; conditions: read-out: IC50 Human PI3Kα
Method: The test uses a luciferin/luciferase system to measure the concentration of ATP and its consumption during the enzymatic reaction.
After 90 minutes, the reaction is quenched by adding 20 μl/well of KinaseGlo reagent (Promega V6713). After 10 minutes in the dark, the luminescence is read using a PHERAStar microplate reader (reading at 0.8 sec/well).

[1] = system: Plasmodium falciparum (strain NF54); assay: Antimalarial activity test: growth of Plasmodium falciparum in infected human erythrocytes, 3H-hypoxanthine incorporation; format: cell-based; conditions: Plasmodium falciparum, Erythrocyte, strain NF54 sensitive to chloroquine, 72 h total incubation
Method: The compounds according to the invention underwent pharmacological trials to determine their inhibitory effect on the growth of Plasmodium falciparum (strain NF54 sensitive to inhibition with chloroquine) in an in vitro test using infected human erythrocytes. The growth of the parasites is measured via the incorporation of tritiated hypoxanthine compared with the incorporation in the absence of drug. The tests are performed in 96-well microplates (Falcon™ 96-well microtiter plates, ref. No. 353072) in RPMI 1640 solutions (10.44 g/l) (without hypoxanthine) with HEPES (5.94 g/l), NaHCO3 (2.1 g/l), neomycin ([…])+AlbumaxR II (5 g/l) supplemented with human erythrocytes with a final hematocrit of 1.25% and a final parasitemia of 0.15%.
The stock solution of the compounds is prepared at 10 mg/mL in DMSO. For the test, fresh solutions at the desired concentrations are prepared in RPMI medium. For the test, 100 μl of compound are mixed with 100 μl of infected blood. For the determination of the IC50 values, the compounds are tested in twofold serial dilution.
The plates are incubated at 37° C. under a humid atmosphere with 93% N2, 4% CO2 and 3% O2. After 48 hours, 50 μl of ^3H-hypoxanthine (=0.5 μCi) in RPMI medium are added to each well and incubation is continued for a further 24 hours. Next, the plates are washed with distilled water and the cell lyzate is transferred onto fiberglass filters. The filters are dried and the radioactivity is determined by liquid scintillation. The results in cpm are converted into percentages of inhibition. The inhibitory activity is given by the concentration that inhibits 50% of the growth of the parasite relative to a control without compound.

[2] = PI3Kα (p110α/p85α), 50 μM PIP2, 2 μM ATP, 90 minutes
[3] = known compounds of WO 2011/001 112 and WO 2011/001 113

Chain of human PI3Kα (P42336 whole entry): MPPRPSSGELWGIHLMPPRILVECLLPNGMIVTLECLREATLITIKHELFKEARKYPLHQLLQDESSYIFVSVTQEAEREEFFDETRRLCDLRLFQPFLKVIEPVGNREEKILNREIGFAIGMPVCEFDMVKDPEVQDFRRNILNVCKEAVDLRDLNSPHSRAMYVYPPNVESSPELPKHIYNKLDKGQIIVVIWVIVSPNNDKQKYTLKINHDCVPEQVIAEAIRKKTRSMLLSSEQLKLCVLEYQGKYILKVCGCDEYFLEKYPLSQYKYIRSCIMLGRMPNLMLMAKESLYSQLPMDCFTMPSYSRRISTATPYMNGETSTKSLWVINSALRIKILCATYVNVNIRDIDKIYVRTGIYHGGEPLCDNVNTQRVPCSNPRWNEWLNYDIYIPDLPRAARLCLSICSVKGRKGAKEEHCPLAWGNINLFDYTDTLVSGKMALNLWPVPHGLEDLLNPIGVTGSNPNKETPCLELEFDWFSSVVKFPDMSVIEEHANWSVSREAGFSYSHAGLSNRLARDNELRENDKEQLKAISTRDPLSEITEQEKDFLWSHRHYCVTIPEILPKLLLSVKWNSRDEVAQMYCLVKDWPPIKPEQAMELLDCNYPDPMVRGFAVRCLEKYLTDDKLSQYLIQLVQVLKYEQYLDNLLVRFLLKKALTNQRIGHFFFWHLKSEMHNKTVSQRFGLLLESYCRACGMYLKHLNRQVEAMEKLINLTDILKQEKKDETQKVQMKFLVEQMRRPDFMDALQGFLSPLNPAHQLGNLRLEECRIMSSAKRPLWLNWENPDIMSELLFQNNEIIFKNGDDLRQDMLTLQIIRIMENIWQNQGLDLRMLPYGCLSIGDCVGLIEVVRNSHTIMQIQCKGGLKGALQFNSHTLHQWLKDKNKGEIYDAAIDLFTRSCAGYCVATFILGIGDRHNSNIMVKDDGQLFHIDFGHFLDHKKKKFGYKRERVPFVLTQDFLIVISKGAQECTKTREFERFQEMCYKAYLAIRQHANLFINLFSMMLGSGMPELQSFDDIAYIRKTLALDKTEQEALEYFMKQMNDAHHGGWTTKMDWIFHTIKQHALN
Chain of human PI3Kα (P27986 whole entry partner): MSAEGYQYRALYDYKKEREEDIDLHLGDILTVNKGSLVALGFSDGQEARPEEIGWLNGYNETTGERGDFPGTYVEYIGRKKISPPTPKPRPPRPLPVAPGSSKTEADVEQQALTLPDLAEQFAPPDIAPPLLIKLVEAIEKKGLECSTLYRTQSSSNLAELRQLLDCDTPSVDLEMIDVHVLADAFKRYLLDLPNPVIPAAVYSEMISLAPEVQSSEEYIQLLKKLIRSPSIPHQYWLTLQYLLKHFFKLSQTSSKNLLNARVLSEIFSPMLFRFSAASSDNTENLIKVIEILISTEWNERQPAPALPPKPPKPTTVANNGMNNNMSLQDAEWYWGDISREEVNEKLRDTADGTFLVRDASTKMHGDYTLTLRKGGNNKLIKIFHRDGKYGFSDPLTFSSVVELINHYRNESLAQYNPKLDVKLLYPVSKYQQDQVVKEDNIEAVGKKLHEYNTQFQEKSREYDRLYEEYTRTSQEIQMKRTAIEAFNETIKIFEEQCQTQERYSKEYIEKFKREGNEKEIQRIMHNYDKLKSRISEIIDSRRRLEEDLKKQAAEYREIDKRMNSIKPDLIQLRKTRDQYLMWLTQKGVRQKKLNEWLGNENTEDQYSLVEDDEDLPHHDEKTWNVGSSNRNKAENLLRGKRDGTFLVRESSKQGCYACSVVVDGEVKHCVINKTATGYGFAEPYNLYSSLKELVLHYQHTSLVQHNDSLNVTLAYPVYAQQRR

## O=C(CN1c2nc(N3C[C@@H]4C[C@H]3CO4)cc(=O)n2CC[C@H]1C(F)(F)F)c1ccc(OC(F)F)nc1 [Compound 114, (S)-9-[2-(6-difluoromethoxypyrid-3-yl)-2-oxoethyl]-2-(1S,4S)-2-oxa-5-azabicyclo[2.2.1]hept-5-yl-8-trifluoromethyl-6,7,8,9-tetrahydropyrimido[1,2-a]pyrimidin-4-one]
Human PI3Kα; [2]
  IC50: > 10000 nM
[1]
  IC50: 245 nM

## O=c1cc(N2C[C@@H]3C[C@H]2CO3)nc2n1CC[C@@H](C(F)(F)F)N2CC1(O)CCCC1 [Compound 101, (8S)-9-(1-Hydroxycyclopentylmethyl)-2-(1S,4S)-2-oxa-5-azabicyclo[2.2.1]hept-5-yl-8-trifluoromethyl-6,7,8,9-tetrahydropyrimido[1,2-a]pyrimidin-4-one]
Human PI3Kα; [2]
  IC50: 450 nM
[1]
  IC50: 10 nM

## O=CN1CCC(CCN2c3nc(N4C[C@@H]5C[C@H]4CO5)cc(=O)n3CC[C@H]2C(F)(F)F)CC1 [Compound 90, 4-[2-((2S)-8-(1S,4S)-2-oxa-5-azabicyclo[2.2.1]hept-5-yl-6-oxo-2-trifluoromethyl-3,4-dihydro-2H,6H-pyrimido[1,2-a]pyrimidin-1-yl)ethyl]piperidine-1-carbaldehyde]
Human PI3Kα; [2]
  IC50: 2400 nM
[1]
  IC50: 2 nM

## Cc1ncsc1CCN1c2nc(N3C[C@@H]4C[C@H]3CO4)cc(=O)n2CC[C@H]1C(F)(F)F [Compound 25, (8S)-9-[2-(4-Methylthiazol-5-yl)ethyl]-2-(1S,4S)-2-oxa-5-azabicyclo[2.2.1]hept-5-yl-8-trifluoromethyl-6,7,8,9-tetrahydropyrimido[1,2-a]pyrimidin-4-one]
Human PI3Kα; [2]
  IC50: 1000 nM
[1]
  IC50: < 3.4 nM

## O=C(CN1c2nc(N3C[C@@H]4C[C@H]3CO4)cc(=O)n2CC[C@H]1C(F)(F)F)c1ccc(F)c(F)c1 [Compound 40, (S)-9-[2-(3,4-Difluorophenyl)-2-oxoethyl]-2-(1S,4S)-2-oxa-5-azabicyclo[2.2.1]hept-5-yl-8-trifluoromethyl-6,7,8,9-tetrahydropyrimido[1,2-a]pyrimidin-4-one]
Human PI3Kα; [2]
  IC50: > 10000 nM
[1]
  IC50: 80 nM

## COc1ccc(CCN2c3nc(N4CCOCC4)cc(=O)n3CC[C@H]2C(F)(F)F)cc1 [Example 1 (p. 44, WO 2011/001 113), reference compound]
Human PI3Kα; [3]
  IC50: 9 nM

## O=c1cc(N2CC3CCC(C2)O3)nc2n1CC[C@@H](C(F)(F)F)N2C[C@@H](O)c1ccccc1 [Compound 80, (8S)-9-((S)-2-hydroxy-2-phenylethyl)-2-(8-oxa-3-azabicyclo[3.2.1]oct-3-yl)-8-trifluoromethyl-6,7,8,9-tetrahydropyrimido[1,2-a]pyrimidin-4-one]
Human PI3Kα; [2]
  IC50: 1600 nM

## COc1ccc(CCN2c3nc(N4CC5CCC(C4)O5)cc(=O)n3CC[C@H]2C(F)(F)F)cc1 [Compound 81, (8S)-9-[2-(4-Methoxyphenyl)ethyl]-2-(8-oxa-3-azabicyclo[3.2.1]oct-3-yl)-8-trifluoromethyl-6,7,8,9-tetrahydropyrimido[1,2-a]pyrimidin-4-one]
Human PI3Kα; [2]
  IC50: 2000 nM

## O=C(CN1c2nc(N3CC4CCC(C3)O4)cc(=O)n2CC[C@H]1C(F)(F)F)c1cccnc1 [Compound 87, (8S)-2-(8-Oxa-3-azabicyclo[3.2.1]oct-3-yl)-9-(2-oxo-2-pyrid-3-ylethyl)-8-trifluoromethyl-6,7,8,9-tetrahydropyrimido[1,2-a]pyrimidin-4-one]
Human PI3Kα; [2]
  IC50: ≥ 10000 nM

## C[C@@]1(C(F)(F)F)Cn2c(nc(N3CCOCC3)cc2=O)N1C[C@@H](O)c1ccccc1 [Example 10 (p. 61, WO 2011/001 112), reference compound]
Human PI3Kα; [3]
  IC50: 17 nM

## COc1ccc(CCN2c3nc(N4CCOCC4)cc(=O)n3C[C@@]2(C)C(F)(F)F)cc1 [Example 1 (p. 39, WO 2011/001 112), reference compound]
Human PI3Kα; [3]
  IC50: 15 nM
